The text below walks through data of patent US20160115186A1, “PHOSPHORIC ACID/PHOSPHONIC ACID DERIVATIVES AND MEDICINAL USES THEREOF” (priority 2013, published 2016).

Where two headings read alike, the source gives them in different places.

The nature of one series: in vitro. Format: cell-based. As to conditions: human; Hep G 2.2.15 cells, MTT, day 3 post-dosing. As for the experimental part: Hep G 2.2.15 cells were inoculated in a 96-well plate (with cell number being 5.5×10^4) to continually cultivate for 3 days, new culture solutions containing different concentrations of drugs were added, and 3 wells were provided in parallel; at day 3 post-dosing, MTT was added until 7.5 mg/ml, and continued to cultivate for 2 hours, the supernate was discarded, isopropanol containing 10% […] was added, 120 μl/well, and 0.4 μl/well was further added.

Series [1] relates to liver damage in mice caused by CCl4. The class given is in vivo, Kunmin mice. As to conditions: serum, CCl4 model, 0.2 mmol oral twice, 24 hours after second administration. The method, then:
Kunmin mice (20 g) were grouped randomly (8/group). 0.2 mmol of a compound to be tested was orally administered; after 1 hour post-dosing, a 0.1% peanut oil solution of CCl4 was subcutaneously injected (10 mL/kg), to prepare a liver damage model; the normal saline was injected as a normal control group. After modeling for 12 hours, 0.2 mmol of the compound to be tested was orally administrated again. After 24 hours from the second administration, blood samples were collected to take serum specimen so as to determine ALT, AST.

For series [2], the system named is liver damage in mice caused by D-aminogalactose. The class given is in vivo, Kunmin mice. Conditions: serum, D-aminogalactose 750 mg/kg model, 0.2 mmol oral twice, 24 hours after second administration. The method, then: Kunmin mice (20 g) were grouped randomly (8/group). 0.2 mmol of a compound to be tested was orally administered; after 2 hours post-dosing, D-aminogalactose was intraperitoneally injected at a dose of 750 mg/kg to prepare a liver damage model, and the normal saline was subcutaneously injected as a normal control group. After modeling for 12 hours, 0.2 mmol of the compound to be tested was orally administrated again. After 24 hours from the second administration, blood samples were collected to take serum specimen so as to determine ALT, AST.

The subject of another series is DHBV. Nature of the series: animal or person. The class given is in vivo, sheldrakes. Conditions: Duck hepatitis B virus, po, 336 h, serum DHBV DNA; for inhibition in vivo at 20 mg/kg: 20 mg/kg intragastric once a day for 14 days; for inhibition in vivo at 10 mg/kg: 10 mg/kg intragastric once a day for 14 days. The method, then:
The sheldrakes infected by vertical transmission and being positive in DHBV DNA detection were grouped randomly, 5/group. Water and different doses of the compound to be tested were intragastrically administrated, respectively, once a day, for 14 days. Venous blood samples were collected pre-dosing, at day 14 of dosing and at day 7 after drug withdrawal, the serum DHBV DNA content was measured using external standard TaqMan real-time fluorescence PCR method, and the inhibition ratio was calculated, as compared to the solvent group.

[3] abbreviates: read-out: Inhibition ratio (%) Day 14 of dosing.
[4] abbreviates: read-out: Inhibition ratio (%) day 7 after drug withdrawal.

Broadly, the CC50 is the concentration at which the toxic effect on the cells reaches its halfway point. The low end stands for greater toxicity to the cells, the high end for lower toxicity to the cells. For the molecule `CC(C)OC(=O)[C@H](C)NP(=O)(OC[C@H]1O[C@@H](n2ccc(=O)[nH]c2=O)[C@](C)(F)[C@@H]1O)Oc1ccc2c(c1)OCO2` (stereo partly shown) [Compound I31], the CC50 in “in vitro” was over 200 µM.
In “in vitro”, `C[C@H](Cn1cnc2c(N)ncnc21)OCP(=O)(N[C@H](C)C(=O)OC1CCCCC1)Oc1ccc2c(c1)OCO2` (stereo partly shown) [Compound I25] showed a CC50 at 3 days of over 200 µM.
Take `CC(C)OC(=O)[C@H](C)N[P@](=O)(OC[C@H]1O[C@@H](n2ccc(=O)[nH]c2=O)[C@](C)(F)[C@@H]1O)Oc1ccccc1` [PSI-7977, 5′-[(S)-[[(S)-1-(isopropoxycarbonyl)-ethyl]-amino]-phenoxylphosphoryl]-β-D-2′-deoxy-2′-α-fluoro-2′-β-C-methyluridine, reference compound]: in series [1], the ALT came out at 2324 U/L and the AST was 2538 U/L. In series [2], this molecule showed an ALT of 1079 U/L and an AST of 1727 U/L. Also, the CC50 in the series “in vitro” came out at 178 µM.
Take `COC(=O)[C@@H](C)NP(=O)(OCCOCn1cnc2c(=O)[nH]c(N)nc21)Oc1ccccc1` (stereo partly shown) [i-3, reference compound]: the ALT is 231 U/L in series [1] and 1150 U/L in series [2]. Besides, the AST is 446 U/L in series [1] and 1419 U/L in series [2]. In addition, the inhibition in vivo at 20 mg/kg in the series on DHBV (setting [3]) is 56.6%; with DHBV (setting [4]) it was 14.6%. The CC50 in the series “in vitro” was 177 µM.
Consider `COc1nc(N)nc2c1ncn2[C@@H]1O[C@H](COP(=O)(N[C@@H](C)C(=O)OC(C)C)Oc2cccc3c2OCO3)[C@@H](O)[C@@]1(C)F` (stereo partly shown) [Compound I40], for which the CC50 in “in vitro” was over 200 µM.
In the series “in vitro”, `CC(C)C[C@@H](NP(=O)(CO[C@H](C)Cn1cnc2c(N)ncnc21)Oc1ccc2c(c1)OCO2)C(=O)OC(C)C` (stereo partly shown) [Compound I23] displayed a half-maximal cytotoxic concentration (CC50) at 3 days of over 200 µM.
As to `CC(C)Cc1sc(N)nc1-c1ccc(P(=O)(Oc2ccc3c(c2)OCO3)Oc2ccc3c(c2)OCO3)o1` [Compound I10, bis-(benzo[1,3]dioxolan-5-yl) [5-[2-amino-5-(2-methylpropyl)-thiazol-4-yl]-furan-2-yl]-phosphonate], the CC50 at 3 days in the series “in vitro” was over 200 µM.
The same measure, in the same setting: with `C[C@@]1(F)[C@H](O)[C@@H](COP(=O)(Oc2ccc3c(c2)OCO3)Oc2ccc3c(c2)OCO3)O[C@H]1n1ccc(=O)[nH]c1=O` [Compound I17, 5′-O-[bis-((benzo[1,3]dioxolan-5-yl)-oxyl)-phosphoryl]-β-D-2′-deoxy-2′-α-fluoro-2′-β-C-methyl uridine] the figure was over 200 µM; with `C[C@H](Cn1cnc2c(N)ncnc21)OCP(=O)(Oc1cccc2c1OCO2)Oc1cccc2c1OCO2` [Compound I5, 9-[(R)-2-[[bis-((benzo[1,3]dioxolan-4-yl)-oxyl)-phosphonyl]-methoxyl]-propyl]-adenine], over 200 µM.
As to `COc1nc(N)nc2c1ncn2[C@@H]1O[C@H](CO[P@@](=O)(N[C@@H](C)C(=O)OC(C)C)Oc2ccc3c(c2)OCO3)[C@@H](O)[C@@]1(C)F` [Compound I34-b], the ALT in series [1] is on record as 289 U/L; in series [2] it was 341 U/L. The figures for the AST in series [1] and in series [2] were 536 U/L and 194 U/L, respectively.
Regarding `C=C1[C@H](COP(=O)(Oc2ccc3c(c2)OCO3)Oc2ccc3c(c2)OCO3)[C@@H](O)C[C@@H]1n1cnc2c(OC)nc(N)nc21` [Compound I16, 2-amino-6-methoxyl-9-[(1S,3R,4S)-4-hydroxyl-3-(bis-(((benzo[1,3]dioxolan-5-yl)-oxyl)-phosphoryl)-oxymethyl)-2-methylenecyclopentyl]-purine], the CC50 at 3 days in the series “in vitro” is over 200 µM.
In turn, `COc1nc(N)nc2c1ncn2[C@@H]1O[C@H](COP(=O)(N[C@@H](C)C(=O)OC(C)C)Oc2ccc3c(c2)OCO3)[C@@H](O)[C@@]1(C)F` (stereo partly shown) [Compound I34] yielded a CC50 in the series “in vitro” of over 200 µM.
In turn, `CCOC(=O)[C@H](C)N[P@](=O)(OC[C@H]1O[C@@H](n2cnc3c(OC)nc(N)nc32)[C@](C)(F)[C@@H]1O)Oc1ccc2c(c1)OCO2` [Compound I33] yielded a CC50 in “in vitro” of over 200 µM.
Consider `COC(=O)[C@H](C)N[P@](=O)(OC[C@H]1O[C@@H](n2ccc(N)nc2=O)CS1)Oc1ccc2c(c1)OCO2` [Compound I37], for which the inhibition in vivo at 10 mg/kg is 75.2% in the series on DHBV (setting [3]) and 9.4% in the series on DHBV (setting [4]). In “in vitro”, this molecule displayed a CC50 of 193 µM.
The molecule `Cc1cc(OCP(=O)(Oc2ccc3c(c2)OCO3)Oc2ccc3c(c2)OCO3)cc(C)c1Cc1ccc(O)c(C(C)C)c1` [Compound I9, bis-(benzo[1,3]dioxolan-5-yl) [(3,5-dimethyl-4-(4′-hydroxyl-3′-isopropylbenzyl)phenoxyl)-methyl]-phosphonate] had a CC50 at 3 days in the series “in vitro” of over 200 µM.
Turning to `CCOC(=O)[C@@H](C)NP(=O)(CO[C@H](C)Cn1cnc2c(N)ncnc21)Oc1ccc2c(c1)OCO2` (stereo partly shown) [Compound I20], half-maximal cytotoxicity in “in vitro” (CC50 at 3 days) was put at 179 µM.
In “in vitro”, `CCOC(=O)[C@H](C)N[P@](=O)(OC[C@H]1O[C@@H](n2ccc(=O)[nH]c2=O)[C@](C)(F)[C@@H]1O)Oc1ccc2c(c1)OCO2` [Compound I30] had a CC50 of over 200 µM.
`COc1nc(N)nc2c1ncn2[C@@H]1O[C@H](CO[P@@](=O)(N[C@@H](C)C(=O)OC2CCCCC2)Oc2ccc3c(c2)OCO3)[C@@H](O)[C@@]1(C)F` [Compound I35] showed a CC50 in the series “in vitro” of over 200 µM.
Molecule `CC(C)OC(=O)[C@@H](C)NP(=O)(CO[C@H](C)Cn1cnc2c(N)ncnc21)Oc1ccc2c(c1)OCO2` (stereo partly shown) [Compound I21] gave a CC50 at 3 days in “in vitro” of over 200 µM.
With `CC(C)OC(=O)[C@H](C)N[P@](=O)(OC[C@H]1O[C@@H](n2ccc(N)nc2=O)CS1)Oc1ccc2c(c1)OCO2` [Compound I36], the ALT in series [1] is listed as 490 U/L; in series [2], 187 U/L. Moreover, the AST is reported as 543 U/L in series [1] and 113 U/L in series [2]. The inhibition in vivo at 20 mg/kg came to 92% with DHBV (setting [3]) and 10.8% in the series with DHBV (setting [4]). The same molecule registered a CC50 in the series “in vitro” of over 200 µM.
`CC(C)OC(=O)[C@H](C)N[P@@](=O)(OC[C@H]1O[C@@H](n2ccc(=O)[nH]c2=O)[C@](C)(F)[C@@H]1O)Oc1ccc2c(c1)OCO2` [Compound I31-a]: in series [1], the ALT came to 507 U/L and the AST amounted to 446 U/L. In series [2], the ALT was 421 U/L and the AST came out at 253 U/L.
`COc1nc(N)nc2c1ncn2[C@@H]1O[C@H](CO[P@@](=O)(N[C@@H](C)C(=O)OC(C)C)Oc2ccccc2)[C@@H](O)[C@@]1(C)F` [PSI-353661, reference compound]: in series [1], the ALT stood at 1669 U/L and the AST was 2312 U/L. In series [2], this molecule returned an ALT of 1558 U/L and an AST of 1027 U/L. The midpoint of cytotoxicity in “in vitro”, the CC50, lay at 149 µM.
On to `CC(C)OC(=O)[C@H](C)N[P@](=O)(OC[C@H]1O[C@@H](n2ccc(=O)[nH]c2=O)[C@](C)(F)[C@@H]1O)Oc1ccc2c(c1)OCO2` [Compound I31-b], for which the ALT worked out at 205 U/L in series [1] and 375 U/L in series [2]. For the same molecule, the AST is listed as 439 U/L in series [1] and 751 U/L in series [2].
For the molecule `COc1nc(N)nc2c1ncn2[C@@H]1O[C@H](CO[P@](=O)(N[C@@H](C)C(=O)OC(C)C)Oc2ccc3c(c2)OCO3)[C@@H](O)[C@@]1(C)F` [Compound I34-a], in series [1], the ALT amounted to 293 U/L and the AST was determined as 763 U/L. In series [2], this molecule showed an ALT of 131 U/L and an AST of 282 U/L.
`C=C1[C@H](COP(=O)(N[C@@H](C)C(=O)OC(C)C)Oc2cccc3c2OCO3)[C@@H](O)C[C@@H]1n1cnc2c(=O)[nH]c(N)nc21` (stereo partly drawn) [Compound I39, 9-[(1S,3R,4S)-4-hydroxyl-3-[(((benzo[1,3]dioxolan-4-yl)-oxyl)-1-isopropoxycarbonylethylamino-phosphoryl)-oxymethyl]-2-methylenecyclopentyl]-guanine] displayed a CC50 in the series “in vitro” of 182 µM.
The molecule `COc1ccc(Sc2nc(N)nc3c2ncn3CCOCP(=O)(Oc2cccc3c2OCO3)Oc2cccc3c2OCO3)cc1` [Compound I7, 2-amino-6-(4-methoxylphenyl)thio-9-[[[bis-((benzo[1,3]dioxolan-4-yl)-oxyl)-phosphonyl]-methoxyl]-ethyl]-purine] registered a CC50 at 3 days in “in vitro” of over 200 µM.
With `C[C@H](N[P@](=O)(OC[C@H]1O[C@@H](n2ccc(=O)[nH]c2=O)[C@](C)(F)[C@@H]1O)Oc1ccc2c(c1)OCO2)C(=O)OC1CCCCC1` [Compound I32], the CC50 in the series “in vitro” is over 200 µM.
